PMC10175918 (Communications Biology, 2023)
Where two headings read alike, the source gives them in different places.

Key:
Test in all cases: TGFα-shedding assay-based GPCR screening with chimeric Gα subunit proteins
Assay type in all cases: cell-based
348 GPCRs [1] = target: T1, 348 GPCRs (Homo sapiens, UniProt P24530); settings: 10µM, Favipiravir 100μM
T1 construct: expressed in transfected cells; host or cells: HEK293A
T1 sequence (P24530 27-442): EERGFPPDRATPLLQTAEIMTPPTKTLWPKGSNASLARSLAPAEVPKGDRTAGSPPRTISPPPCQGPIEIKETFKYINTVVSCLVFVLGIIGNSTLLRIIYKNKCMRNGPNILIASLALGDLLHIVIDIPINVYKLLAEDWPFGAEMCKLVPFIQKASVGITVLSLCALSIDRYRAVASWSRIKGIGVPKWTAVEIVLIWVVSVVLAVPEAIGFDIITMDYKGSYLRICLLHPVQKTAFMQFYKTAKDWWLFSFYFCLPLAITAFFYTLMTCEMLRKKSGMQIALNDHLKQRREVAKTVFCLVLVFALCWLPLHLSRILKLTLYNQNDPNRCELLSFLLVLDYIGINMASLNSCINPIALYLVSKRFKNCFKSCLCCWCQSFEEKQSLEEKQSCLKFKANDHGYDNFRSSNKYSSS

348 GPCRs [2] = target: T2, 348 GPCRs (Homo sapiens, UniProt P46089); settings: 10µM, Favipiravir 100μM
T2 construct: expressed in transfected cells; host or cells: HEK293A

348 GPCRs [3] = target: T3, 348 GPCRs (Homo sapiens, UniProt Q86SM5); settings: 10µM, Favipiravir 100μM
T3 construct: expressed in transfected cells; host or cells: HEK293A
T3 sequence (Q86SM5 1-289): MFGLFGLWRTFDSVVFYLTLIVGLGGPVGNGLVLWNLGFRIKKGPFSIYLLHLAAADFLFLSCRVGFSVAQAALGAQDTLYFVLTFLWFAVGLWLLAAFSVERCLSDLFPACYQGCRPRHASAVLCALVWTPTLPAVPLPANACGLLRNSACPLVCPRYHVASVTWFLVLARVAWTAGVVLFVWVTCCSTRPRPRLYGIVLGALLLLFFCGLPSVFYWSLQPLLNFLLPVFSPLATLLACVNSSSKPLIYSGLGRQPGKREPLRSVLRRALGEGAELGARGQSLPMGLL

348 GPCRs [4] = target: T4, 348 GPCRs (Homo sapiens, UniProt Q8TDV0); settings: 10µM, Favipiravir 100μM
T4 construct: expressed in transfected cells; host or cells: HEK293A
T4 sequence (Q8TDV0 1-419): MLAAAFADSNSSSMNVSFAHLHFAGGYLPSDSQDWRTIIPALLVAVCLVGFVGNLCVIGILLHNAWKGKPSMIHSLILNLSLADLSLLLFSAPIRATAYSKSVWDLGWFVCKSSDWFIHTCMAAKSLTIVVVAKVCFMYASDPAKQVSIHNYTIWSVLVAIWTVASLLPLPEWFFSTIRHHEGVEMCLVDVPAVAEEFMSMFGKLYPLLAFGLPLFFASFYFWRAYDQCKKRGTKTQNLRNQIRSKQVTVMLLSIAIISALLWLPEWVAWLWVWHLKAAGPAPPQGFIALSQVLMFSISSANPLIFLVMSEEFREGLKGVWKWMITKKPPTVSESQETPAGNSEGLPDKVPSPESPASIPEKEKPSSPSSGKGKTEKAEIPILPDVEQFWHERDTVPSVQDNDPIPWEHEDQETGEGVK

348 GPCRs [5] = target: T5, 348 GPCRs (Homo sapiens, UniProt Q96P66)
T5 construct: expressed in transfected cells; host or cells: HEK293A
T5 sequence (Q96P66 1-508): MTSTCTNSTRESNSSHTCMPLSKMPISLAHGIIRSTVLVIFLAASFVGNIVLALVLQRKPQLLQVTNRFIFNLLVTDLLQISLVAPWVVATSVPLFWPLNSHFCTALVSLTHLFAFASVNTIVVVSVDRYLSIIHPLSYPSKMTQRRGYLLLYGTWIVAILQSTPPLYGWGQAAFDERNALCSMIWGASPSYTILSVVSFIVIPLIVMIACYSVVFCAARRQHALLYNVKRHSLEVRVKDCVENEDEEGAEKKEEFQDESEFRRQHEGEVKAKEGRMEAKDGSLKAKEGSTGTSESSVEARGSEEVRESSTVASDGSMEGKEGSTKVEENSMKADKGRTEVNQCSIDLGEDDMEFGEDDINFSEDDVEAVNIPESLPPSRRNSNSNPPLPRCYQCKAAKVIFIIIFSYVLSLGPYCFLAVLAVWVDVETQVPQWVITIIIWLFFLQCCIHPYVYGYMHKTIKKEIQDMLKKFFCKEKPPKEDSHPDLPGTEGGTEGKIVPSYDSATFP

348 GPCRs [6] = target: T6, 348 GPCRs (Homo sapiens, UniProt Q9H244)
T6 construct: expressed in transfected cells; host or cells: HEK293A

348 GPCRs [7] = target: T7, 348 GPCRs (Homo sapiens, UniProt Q9NYW0); settings: 10µM, Favipiravir 100μM
T7 construct: expressed in transfected cells; host or cells: HEK293A
T7 sequence (Q9NYW0 1-307): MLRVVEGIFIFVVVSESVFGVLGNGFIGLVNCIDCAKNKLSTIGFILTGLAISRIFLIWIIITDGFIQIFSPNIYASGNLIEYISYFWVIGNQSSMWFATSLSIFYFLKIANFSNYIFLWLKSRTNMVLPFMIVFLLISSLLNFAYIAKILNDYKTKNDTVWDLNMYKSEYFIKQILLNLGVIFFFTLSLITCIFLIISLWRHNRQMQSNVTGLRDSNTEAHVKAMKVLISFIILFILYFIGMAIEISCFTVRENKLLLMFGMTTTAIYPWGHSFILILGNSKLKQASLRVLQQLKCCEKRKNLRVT

[8] = EDNRB (endothelin receptor type B), read-out: % GPCR activation compared to TPA
[9] = GPR3 (G protein-coupled receptor 3), read-out: % GPCR activation compared to TPA
[10] = MRGPRG (MAS-related GPR, member G), read-out: % GPCR activation compared to TPA
[11] = GPR151 (G Protein-Coupled Receptor 151), read-out: % GPCR activation compared to TPA
[12] = GPCR GPR101 (G protein-coupled receptor 101), read-out: % GPCR activation compared to TPA
[13] = GPCR P2Y12 (purinergic receptor P2Y, G-protein coupled, 12), read-out: % GPCR activation compared to TPA
[14] = TAS2R10 (taste receptor, type 2, member 10), read-out: % GPCR activation compared to TPA
[15] = read-out: % GPCR activation compared to TPA, EDNRB (endothelin receptor type B)
[16] = read-out: % GPCR activation compared to TPA, GPR3 (G protein-coupled receptor 3)
[17] = read-out: % GPCR activation compared to TPA, MRGPRG (MAS-related GPR, member G)
[18] = read-out: % GPCR activation compared to TPA, GPR151 (G Protein-Coupled Receptor 151)
[19] = read-out: % GPCR activation compared to TPA, GPCR GPR101 (G protein-coupled receptor 101)
[20] = read-out: % GPCR activation compared to TPA, GPCR P2Y12 (purinergic receptor P2Y, G-protein coupled, 12)
[21] = read-out: % GPCR activation compared to TPA, TAS2R10 (taste receptor, type 2, member 10)

T2 sequence (P46089 whole entry): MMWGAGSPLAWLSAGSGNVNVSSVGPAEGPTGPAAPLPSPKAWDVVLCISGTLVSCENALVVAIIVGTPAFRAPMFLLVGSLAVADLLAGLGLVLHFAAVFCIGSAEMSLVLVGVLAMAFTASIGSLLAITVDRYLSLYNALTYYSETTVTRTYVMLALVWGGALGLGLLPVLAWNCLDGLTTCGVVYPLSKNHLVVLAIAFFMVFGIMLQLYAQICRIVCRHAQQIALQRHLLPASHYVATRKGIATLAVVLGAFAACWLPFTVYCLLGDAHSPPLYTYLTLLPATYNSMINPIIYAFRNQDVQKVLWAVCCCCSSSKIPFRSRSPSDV
T6 sequence (Q9H244 whole entry): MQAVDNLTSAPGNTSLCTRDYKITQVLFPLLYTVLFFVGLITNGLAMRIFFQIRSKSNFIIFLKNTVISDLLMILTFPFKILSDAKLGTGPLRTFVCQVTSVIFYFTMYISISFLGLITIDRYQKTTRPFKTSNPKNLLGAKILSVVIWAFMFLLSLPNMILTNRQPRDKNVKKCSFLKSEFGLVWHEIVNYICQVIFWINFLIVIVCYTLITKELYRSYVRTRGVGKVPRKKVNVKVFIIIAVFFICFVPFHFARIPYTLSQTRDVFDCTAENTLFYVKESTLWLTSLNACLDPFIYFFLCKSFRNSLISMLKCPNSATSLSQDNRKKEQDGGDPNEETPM

Compound | activation at 100 µM (348 GPCRs [1]; [8]) | activation at 100 µM (348 GPCRs [2]; [9]) | activation at 100 µM (348 GPCRs [3]; [10]) | activation at 10 µM (348 GPCRs [4]; [11]) | activation at 10 µM (348 GPCRs [5]; [12]) | activation at 10 µM (348 GPCRs [6]; [13]) | activation at 100 µM (348 GPCRs [7]; [14]) | activation at 100 µM (348 GPCRs [5]; GPCR GPR101 (G protein-coupled receptor 101), 100μM, read-out: % GPCR activation compared to TPA) | activation at 100 µM (348 GPCRs [6]; GPCR P2Y12 (purinergic receptor P2Y, G-protein coupled, 12), 100μM, read-out: % GPCR activation compared to TPA) | activation at 100 µM (348 GPCRs [1]; [15]) | activation at 100 µM (348 GPCRs [2]; [16]) | activation at 100 µM (348 GPCRs [3]; [17]) | activation at 10 µM (348 GPCRs [4]; [18]) | activation at 10 µM (348 GPCRs [5]; [19]) | activation at 10 µM (348 GPCRs [6]; [20]) | activation at 100 µM (348 GPCRs [7]; [21])
CCC(CC)COC(=O)[C@H](C)N[P@](=O)(OC[C@H]1O[C@@](C#N)(c2ccc3c(N)ncnn23)[C@H](O)[C@@H]1O)Oc1ccccc1 [remdesivir] | – | – | – | – | – | – | – | – | – | -2.2% | 9.85% | -0.00101% | -3.65% | 1.7% | 0.718% | 1.89%
CC(C)OC(=O)[C@H](C)N[P@](=O)(OC[C@H]1O[C@@H](n2ccc(=O)[nH]c2=O)[C@](C)(F)[C@@H]1O)Oc1ccccc1 [sofosbuvir] | – | – | – | – | – | – | – | – | – | -2.57% | -0.512% | -0.28% | -2.06% | -3.4% | -2.59% | -0.149%

Continued, in another order:

activation at 100 µM (348 GPCRs [1]; [8]) | activation at 100 µM (348 GPCRs [2]; [9]) | activation at 100 µM (348 GPCRs [3]; [10]) | activation at 10 µM (348 GPCRs [4]; [11]) | activation at 10 µM (348 GPCRs [5]; [12]) | activation at 10 µM (348 GPCRs [6]; [13]) | activation at 100 µM (348 GPCRs [7]; [14]) | activation at 100 µM (348 GPCRs [5]; GPCR GPR101 (G protein-coupled receptor 101), 100μM, read-out: % GPCR activation compared to TPA) | activation at 100 µM (348 GPCRs [6]; GPCR P2Y12 (purinergic receptor P2Y, G-protein coupled, 12), 100μM, read-out: % GPCR activation compared to TPA) | Compound | activation at 100 µM (348 GPCRs [1]; [15]) | activation at 100 µM (348 GPCRs [2]; [16]) | activation at 100 µM (348 GPCRs [3]; [17]) | activation at 10 µM (348 GPCRs [4]; [18]) | activation at 10 µM (348 GPCRs [5]; [19]) | activation at 10 µM (348 GPCRs [6]; [20]) | activation at 100 µM (348 GPCRs [7]; [21])
-4.24% | 7.48% | -1.34% | -2.28% | -0.779% | -4.31% | 0.66% | – | – | N#C[C@@]1(c2ccc3c(N)ncnn23)O[C@H](CO)[C@@H](O)[C@H]1O [GS441524] | – | – | – | – | – | – | –
-3.11% | 3.58% | -0.36% | -0.974% | – | – | 1.23% | -0.717% | -4.09% | NC(=O)c1nc(F)cnc1O [favipiravir, 6-fluoro-3-hydroxy-2-pyrazinecarboxamide] | – | – | – | – | – | – | –
-3.6% | -0.728% | -1.58% | -2.68% | -0.865% | -6.75% | -0.25% | – | – | CC(C)C(=O)OC[C@H]1O[C@@H](n2ccc(NO)nc2=O)[C@H](O)[C@@H]1O [molnupiravir] | – | – | – | – | – | – | –
